# Measured values from patent US20250163119A1, “COMPOUNDS FOR THE TREATMENT OF DIABETES OR OBESITY” (Eli Lilly and Company, priority 2023, published 2025).
# *1 amine or outer side, *2 acyl side, *3 side chain or, on linkers, in order; H or OH if unused. Where a SMILES comes first, the peptide text is derived from it. Side-chain parts run from the residue outwards. [ ]: non-standard residue; d: D form. The star is where a group is joined. C20 diacid = O=C(O)CCCCCCCCCCCCCCCCCCC(=O)*; γGlu = O=C(O)[C@H](CCC(=O)[*:2])N[*:1]; NMeI = CC[C@H](C)[C@H](NC)C(=O)O; AEEA = NCCOCCOCC(=O)O
# What was measured:
# [1] = tested on: MHC-II presented peptides on human dendritic cells; test: MAPPS assay (MHC-Associated Peptide Proteomics); assay type: cell-based
# Description: MAPPS profiles the MHC-II presented peptides on human dendritic cells treated with tested molecules. CD14+ cells, isolated from the PBMCs of normal human donors, were cultured and differentiated into immature DCs by incubation with IL-4 and GM-CSF. On day 4, culture media was replaced with fresh media containing tested molecules. On day 5, LPS was added to transform the cells into mature DCs. On day 6, cells were lysed in RIPA buffer with protease inhibitors. Immunoprecipitation of MHC-II complexes were performed using biotinylated anti-MHC-II antibody coupled to streptavidin beads. The bound complex was eluted and filtered. The isolated MHC-II peptides were analyzed by a mass spectrometer. Peptide identifications were generated by an internal proteomics pipeline using search algorithms with no enzyme and a bovine/human database with test sequences appended to the database. A KNIME workflow was used to process the identification files from the samples. Peptides identified from the test articles were aligned against the parent sequence of the test molecule. The output was used to determine the percentage of donors displaying MHC-II peptides from regions of the test molecule. Polypeptides comprising SEQ ID NOs:54, 49, 50, 29, 41, 45, 1, 22, 25 were tested in the MAPPs assay. […] Depending on the donors, up to three major clusters were observed, each slightly shifted from the others, altogether spanning residues 1-33.
# CD4+ T cells = test: T cell proliferation assay; assay type: cell-based, human
# Description: This assay assessed the ability of tested antibodies or tested MAPPS peptides to activate CD4+ T cells by inducing cellular proliferation. CD8+ T cell depleted PBMC's were prepared and labeled with CFSE. Each sample was tested with media control, keyhole limpet haemocyanin (KLH; positive clinical benchmark control), tested antibodies, or tested MAPPS peptides. Cultures were incubated for 7 days. On day 7, samples were analyzed by flow cytometry.
structure (smiles),measurement,setting,value
CC[C@H](C)[C@H](NC)C(=O)N[C@H](C(=O)N[C@@H](CC(C)C)C(=O)N[C@@H](CO)C(=O)N[C@@H](CC(C)C)C(=O)N[C@@H](CC(=O)O)C(=O)N[C@H](C(=O)N1CCC[C@H]1C(=O)N[C@H](C(=O)NCC(=O)N[C@@H](CC(C)C)C(=O)N[C@@H](CC(C)C)C(=O)N[C@@H](CCC(N)=O)C(=O)N[C@H](C(=O)N[C@@H](CC(C)C)C(=O)N[C@@H](CC(C)C)C(=O)N[C@@H](CCC(=O)O)C(=O)N[C@@H](CCC(N)=O)C(=O)N[C@@H](CCC(=O)O)C(=O)N[C@@H](CCCCN)C(=O)N[C@@H](CCC(N)=O)C(=O)N[C@@H](CCC(=O)O)C(=O)N[C@@H](CCCCN)C(=O)N[C@@H](CCC(=O)O)C(=O)N[C@@H](CCCCN)C(=O)N[C@@H](CCC(N)=O)C(=O)N[C@@H](CCC(N)=O)C(=O)N[C@@H](C)C(=O)N[C@@H](CCCCNC(=O)COCCOCCNC(=O)COCCOCCNC(=O)CC[C@H](NC(=O)CC[C@H](NC(=O)CCCCCCCCCCCCCCCCCCC(=O)O)C(=O)O)C(=O)O)C(=O)N[C@H](C(=O)N[C@@H](CC(N)=O)C(=O)N[C@@H](C)C(=O)N[C@@H](CCC(N)=O)C(=O)N[C@H](C(=O)N[C@@H](CC(C)C)C(=O)N[C@@H](C)C(=O)N[C@@H](CCC(N)=O)C(=O)N[C@H](C(N)=O)C(C)C)[C@@H](C)CC)[C@@H](C)O)[C@@H](C)CC)[C@@H](C)CC)C(C)C)C(C)C [SEQ ID NO: 54] (H-[NMeI]VLSLDVPIGLLQILLEQEKQEKEKQQAK([AEEA-AEEA-γGlu-γGlu-C20 diacid])TNAQILAQV-NH2),MAPPS Assay >10 donors with diverse MHC,[1]; donors displaying MHC-II peptides / donors tested,7/10
same,peptides displayed on MHC-II complexes,[1]; human dendritic cells from normal donors,at least one peptide cluster on MHC-II complexes in a subset of donors
same,MAPPS Assay >10 donors with diverse MHC,[1]; percentage of donors displaying MHC-II peptides,70%
same,CD4+ T cell proliferation response in donors,"CD4+ T cells; CD8+ T cell depleted PBMCs, 7 days, ten donors",elicited a response in four out of ten donors
same,T Cell Proliferation Assay: protein 7-10 donors with diverse MHC,CD4+ T cells; responding donors / donors tested,4/10
